Laboratory results: PubChem BioAssay (NCI)
≈ marks a conversion by molar mass, not a printed value.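 Growth conditions: 96-well plates. Treatment: test compound, 48 hours, 5 concentrations. Analysis: linear interpolation between bracketing concentrations; unreached endpoints set to highest concentration. GI50 = concentration required for 50% inhibition of growth. TGI: total growth inhibition.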

Assays:
Experiment in all cases: DTP human tumour cell line panel, 48 h
COLO 205 colon = tested on: COLO 205 colon
SNB-75 CNS = tested on: SNB-75 CNS
UACC-257 melanoma = tested on: UACC-257 melanoma
OVCAR-5 ovarian = tested on: OVCAR-5 ovarian
A549 NSCLC = tested on: A549 NSCLC
SW-620 colon = tested on: SW-620 colon
OVCAR-3 ovarian = tested on: OVCAR-3 ovarian
NCI-H226 lung = tested on: NCI-H226 lung
SK-MEL-2 melanoma = tested on: SK-MEL-2 melanoma
HOP-62 NSCLC = tested on: HOP-62 NSCLC

| SMILES | TGI (COLO 205 colon) | TGI (SNB-75 CNS) | TGI (UACC-257 melanoma) | TGI (OVCAR-5 ovarian) | TGI (A549 NSCLC) | TGI (SW-620 colon) | TGI (OVCAR-3 ovarian) | TGI (NCI-H226 lung) [µM] | TGI (SK-MEL-2 melanoma) [µM] | TGI (HOP-62 NSCLC) | GI50 (COLO 205 colon) | GI50 (SNB-75 CNS) [µg/mL] | GI50 (UACC-257 melanoma) [µg/mL] | GI50 (OVCAR-5 ovarian) [µg/mL] | GI50 (A549 NSCLC) | GI50 (SW-620 colon) [µg/mL] | GI50 (OVCAR-3 ovarian) [µg/mL] | GI50 (HOP-62 NSCLC) [µg/mL] | GI50 (SK-MEL-2 melanoma) [nM] |
| --- | --- | --- | --- | --- | --- | --- | --- | --- | --- | --- | --- | --- | --- | --- | --- | --- | --- | --- | --- |
| Cc1c2ccncc2cc2c1[nH]c1ccccc12 | 7.72 µM | 17 µM | 13.5 µM | 13.6 µM | 15.1 µM | 4.68 µM | 25.8 µM | 16.2 | 23.2 | 21.8 µM |  |  |  |  |  |  |  |  |  |
| Nc1[nH]nc(Nc2ccc(Cl)cc2)c1P(=O)(c1ccccc1)c1ccccc1 | > 100 µM | 51.8 µM | > 100 µM | 45.6 µM | > 100 µM | > 100 µM | 41.5 µM | 50.2 | 43.1 | 49.1 µM |  |  |  |  |  |  |  |  |  |
| CC(=O)Nc1ccc(C(=O)NN2C(=O)C(Cl)/C2=C/c2ccco2)cc1 (stereo not drawn) | > 100 µM | > 100 µM | > 100 µM | > 100 µM | > 100 µM | > 100 µM | > 100 µM | > 100 | > 100 | > 100 µM |  |  |  |  |  |  |  |  |  |
| CC(=O)c1c(C)nc(SSc2nc(C)c(C(C)=O)c(-c3ccc(Cl)cc3)c2C#N)c(C#N)c1-c1ccc(Cl)cc1 | > 150 µg/mL | 80.3 µg/mL | > 150 µg/mL | > 150 µg/mL | > 150 µg/mL | > 150 µg/mL | > 150 µg/mL |  |  | > 150 µg/mL | > 150 µg/mL | 23.3 (≈ 38.7 µM) | > 150 | > 150 | 73 µg/mL | 69.4 (≈ 115 µM) | 59.9 (≈ 99.2 µM) | 47.5 (≈ 78.7 µM) |  |
| CC(=O)OCC1OC(n2cc(F)c(=O)[nH]c2=O)C(NC(=O)OCc2ccccc2)C(OC(C)=O)C1OC(C)=O (stereo not drawn) |  | > 100 µM | > 100 µM | > 100 µM | > 100 µM | > 100 µM | > 100 µM | > 100 | > 100 | > 100 µM |  |  |  |  |  |  |  |  |  |
| CCP(=O)(CC)C(Cl)Cl | > 100 µM | > 100 µM | > 100 µM | > 100 µM | > 100 µM | > 100 µM | > 100 µM | > 100 | > 100 | > 100 µM |  |  |  |  |  |  |  |  |  |
| COc1cc(C(C)O)c(S(=O)(=O)CC(C)O)nn1 (stereo not drawn) | > 100 µM |  | > 100 µM | > 100 µM | > 100 µM | > 100 µM | > 100 µM | > 100 |  |  |  |  |  |  |  |  |  |  |  |
| O=C(N/N=C/c1cc(Cl)cc(Cl)c1[O-])c1ccccc1O.O=C(N/N=C/c1cc(Cl)cc(Cl)c1[O-])c1ccccc1O.[Co+2] | 18.3 µM | 18.9 µM | 14.6 µM | 6.27 µM | 13.2 µM | 16.8 µM | 0.969 µM | 4.1 | 3.74 | 5.07 µM | 3.8 µM |  |  |  | 532 nM |  |  |  | 370 |
| O=C1CC2CC3OC3[C@H]3c4cc5c(cc4C(=O)N1C23)OCO5 (stereo partly drawn) | > 100 µM |  |  | > 100 µM | > 100 µM | > 100 µM | > 100 µM | > 100 | > 100 | > 100 µM |  |  |  |  |  |  |  |  |  |
